Data as given in ChEMBL document CHEMBL4028815, “Novel phosphonate analogs of sulforaphane: Synthesis, in vitro and in vivo anticancer activity” (Eur J Med Chem, 2017).
Active and inactive are the calls of the source. The calls are words filed in the database; no cut-off is given here.

What was measured:
[1] = Cytotoxicity against human LoVo/DX cells assessed as cell death at >15 uM after 24 hrs; format: cell-based
LoVo [2] = experiment: Potency index, ratio of sulforaphane IC50 to compound IC50 for human LoVo cells; format: functional
LoVo [3] = experiment: Potency index, ratio of benzyl isothiocyanate IC50 to compound IC50 for human LoVo cells; format: functional
HL-60 = experiment: Cytotoxicity against human HL60 cells after 72 hrs by sulforhodamine B assay; format: functional, cell-based; conditions: HL-60, 72 h
HL60/MX2 = experiment: Cytotoxicity against human HL60/MX2 cells after 72 hrs by sulforhodamine B assay; format: functional, cell-based; conditions: HL60/MX2, 72 h
[4] = Resistance index, ratio of IC50 for human HL60/MX2 cells to IC50 for human HL60 cells; format: functional
LoVo [5] = experiment: Cytotoxicity against human LoVo cells after 72 hrs by sulforhodamine B assay; format: functional, cell-based
[6] = Cytotoxicity against human LoVo/DX cells after 72 hrs by sulforhodamine B assay; format: functional, cell-based
[7] = Resistance index, ratio of IC50 for human LoVo/DX cells to IC50 for human LoVo cells; format: functional
BALB/3T3 = experiment: Cytotoxicity against mouse BALB/3T3 cells after 72 hrs by sulforhodamine B assay; format: cell-based; conditions: BALB/3T3, 72 h
A549 = experiment: Cytotoxicity against human A549 cells after 72 hrs by sulforhodamine B assay; format: functional, cell-based; conditions: A549, 72 h
4T1 [8] = experiment: Cytotoxicity against mouse 4T1 cells after 72 hrs by sulforhodamine B assay; format: functional, cell-based; conditions: 4T1, 72 h
MES-SA = experiment: Cytotoxicity against human MESSA cells after 72 hrs by sulforhodamine B assay; format: functional, cell-based
MES-SA/Dx5 = experiment: Cytotoxicity against human MESSA/DX5 cells after 72 hrs by sulforhodamine B assay; format: functional, cell-based; conditions: MES-SA/Dx5, 72 h
LoVo [9] = experiment: Cell cycle arrest in human LoVo cells at 15 uM after 24 hrs by propidium iodide staining based flow cytometric method; format: functional
LoVo/DX [10] = experiment: Cell cycle arrest in human LoVo/DX cells at 15 uM after 24 hrs by propidium iodide staining based flow cytometric method; format: functional
[11] = Induction of apoptosis in human LoVo/DX cells assessed as increase in caspase3/7 activity at 15 uM using Ac-DEVD-ACC as substrate pretreated for 24 hrs followed by substrate addition measured for 2 hrs by fluorescence assay relative to control; format: functional
LoVo [12] = experiment: Induction of apoptosis in human LoVo cells assessed as increase in caspase3/7 activity at 15 uM using Ac-DEVD-ACC as substrate pretreated for 24 hrs followed by substrate addition measured for 2 hrs by fluorescence assay relative to control; format: functional
LoVo/DX [13] = experiment: Induction of apoptosis in human LoVo/DX cells assessed as increase in caspase3/7 activity at >15 uM using Ac-DEVD-ACC as substrate pretreated for 24 hrs followed by substrate addition measured for 2 hrs by fluorescence assay; format: functional, cell-based
LoVo [14] = experiment: Induction of apoptosis in human LoVo cells assessed as increase in caspase3/7 activity at >15 uM using Ac-DEVD-ACC as substrate pretreated for 24 hrs followed by substrate addition measured for 2 hrs by fluorescence assay; format: functional, cell-based
LoVo [15] = experiment: Induction of apoptosis in human LoVo cells assessed as loss of mitochondrial membrane potential at 15 uM after 24 hrs by JC-1 staining based flow cytometric method relative to control; format: functional
[16] = Induction of apoptosis in human LoVo/DX cells assessed as loss of mitochondrial membrane potential at 15 uM after 24 hrs by JC-1 staining based flow cytometric method relative to control; format: functional
LoVo [17] = experiment: Induction of apoptosis in human LoVo cells assessed as late apoptotic cells at 15 uM after 24 hrs by APC-Annexin-V/propidium iodide staining based flow cytometric method relative to control; format: functional
LoVo/DX [18] = experiment: Induction of apoptosis in human LoVo/DX cells assessed as late apoptotic cells at 15 uM after 24 hrs by APC-Annexin-V/propidium iodide staining based flow cytometric method relative to control; format: functional
LoVo [19] = experiment: Induction of apoptosis in human LoVo cells assessed as increase in early apoptotic cells at 15 uM after 24 hrs by APC-Annexin-V/propidium iodide staining based flow cytometric method relative to control; format: functional
LoVo [20] = experiment: Induction of apoptosis in human LoVo cells assessed as necrotic cells at 15 uM after 24 hrs by APC-Annexin-V/propidium iodide staining based flow cytometric method (reference value: 10%); format: functional
4T1 [21] = experiment: Anti-tumor activity against mouse 4T1 cells implanted in BALB/c mdb mouse assessed as tumor growth inhibition at 300 umol/kg, ip administered five times weekly measured on day 29 post cell innoculum relative to control; format: functional; conditions: 4T1, ip, 696 h, read-out: TGI
4T1 [22] = experiment: Anti-tumor activity against mouse 4T1 cells implanted in BALB/c mdb mouse assessed as tumor growth inhibition at 300 umol/kg, ip administered five times weekly measured on day 15 post cell innoculum relative to control; format: functional; conditions: 4T1, ip, 360 h, read-out: TGI
Mus musculus [23] = experiment: Toxicity in BALB/c mdb mouse implanted with mouse 4T1 cells assessed as body weight loss at 300 umol/kg, ip administered five times weekly measured 3 times weekly during compound dosing; format: organism-based; conditions: in vivo
Mus musculus [24] = experiment: Hepatotoxicity in BALB/c mdb mouse implanted with mouse 4T1 cells assessed as liver weight at 300 umol/kg, ip administered five times weekly measured at 29 day post cell innoculum (reference value: 1.2 +/- 0.13 g); format: toxicity, organism-based; conditions: in vivo, 696 h
Mus musculus [25] = experiment: Nephrotoxicity in BALB/c mdb mouse implanted with mouse 4T1 cells assessed as kidney weight at 300 umol/kg, ip administered five times weekly measured at 29 day post cell innoculum (reference value: 0.136 +/- 0.006 g); format: toxicity, organism-based; conditions: in vivo, 696 h
Mus musculus [26] = experiment: Toxicity in BALB/c mdb mouse implanted with mouse 4T1 cells assessed as spleen weight at 300 umol/kg, ip administered five times weekly measured at 29 day post cell innoculum (reference value: 0.603 +/- 0.133 g); format: organism-based; conditions: in vivo, 696 h
Mus musculus [27] = experiment: Toxicity in BALB/c mdb mouse implanted with mouse 4T1 cells assessed as lung weight at 300 umol/kg, ip administered five times weekly measured at 29 day post cell innoculum (reference value: 0.2 +/- 0.018 g); format: organism-based; conditions: in vivo, 696 h
4T1 [28] = experiment: Anti-tumor activity against mouse 4T1 cells implanted in BALB/c mdb mouse assessed as lung metastasis at 300 umol/kg, ip administered five times weekly measured at 29 days post cell innoculum (reference value: 56 +/- 25); format: functional
Mus musculus [29] = experiment: Toxicity in BALB/c mdb mouse implanted with mouse 4T1 cells assessed as WBC level at 300 umol/kg, ip administered five times weekly measured at 29 day post cell innoculum (reference value: 212.3 +/- 82.8 10^3/uL); format: organism-based; conditions: in vivo, 696 h
Mus musculus [30] = experiment: Toxicity in BALB/c mdb mouse implanted with mouse 4T1 cells assessed as RBC level at 300 umol/kg, ip administered five times weekly measured at 29 day post cell innoculum (reference value: 8.6 +/- 0.9 10^6/uL); format: organism-based; conditions: in vivo, 696 h
Mus musculus [31] = experiment: Toxicity in BALB/c mdb mouse implanted with mouse 4T1 cells assessed as hemoglobin level at 300 umol/kg, ip administered five times weekly measured at 29 day post cell innoculum (reference value: 15.1 +/- 1.5 g/dl); format: organism-based; conditions: in vivo, 696 h
Mus musculus [32] = experiment: Toxicity in BALB/c mdb mouse implanted with mouse 4T1 cells assessed as hematocrit at 300 umol/kg, ip administered five times weekly measured at 29 day post cell innoculum (reference value: 39.9 +/- 3.7 %); format: organism-based; conditions: in vivo, 696 h
Mus musculus [33] = experiment: Toxicity in BALB/c mdb mouse implanted with mouse 4T1 cells assessed as serum PLT level at 300 umol/kg, ip administered five times weekly measured at 29 day post cell innoculum (reference value: 972 +/- 157 10^3/uL); format: organism-based; conditions: in vivo, 696 h
Mus musculus [34] = experiment: Toxicity in BALB/c mdb mouse implanted with mouse 4T1 cells assessed as serum ALT level at 300 umol/kg, ip administered five times weekly measured at 29 day post cell innoculum (reference value: 23.8 +/- 2.2 U/L); format: organism-based; conditions: in vivo, 696 h
Mus musculus [35] = experiment: Toxicity in BALB/c mdb mouse implanted with mouse 4T1 cells assessed as serum AST level at 300 umol/kg, ip administered five times weekly measured at 29 day post cell innoculum (reference value: 136 +/- 10.3 U/L); format: organism-based; conditions: in vivo, 696 h
Mus musculus [36] = experiment: Toxicity in BALB/c mdb mouse implanted with mouse 4T1 cells assessed as serum creatinine level at 300 umol/kg, ip administered five times weekly measured at 29 day post cell innoculum (reference value: 9.3 +/- 1.2 umol/L); format: organism-based; conditions: in vivo, 696 h
Mus musculus [37] = experiment: Toxicity in BALB/c mdb mouse implanted with mouse 4T1 cells assessed as serum urea level at 300 umol/kg, ip administered five times weekly measured at 29 day post cell innoculum (reference value: 3.8 +/- […]); format: organism-based; conditions: in vivo, 696 h
LoVo [38] = experiment: Cytotoxicity against human LoVo cells assessed as cell death at >15 uM after 24 hrs; format: cell-based

CC(C)OP(=O)(CCCCCCN=C=S)OC(C)C
Activity [1]: Toxic
Ratio IC50 (LoVo [2]): 10
Ratio IC50 (LoVo [3]): 5
IC50 (HL-60): 2900 nM
IC50 (HL60/MX2): 4 µM
Ratio IC50 [4]: 1.4
IC50 (LoVo [5]): 2700 nM
IC50 [6]: 9.4 µM
Ratio IC50 [7]: 3.5
IC50 (BALB/3T3): 11.7 µM
IC50 (A549): 10 µM
IC50 (4T1 [8]): 2500 nM
IC50 (MES-SA): 9.5 µM
IC50 (MES-SA/Dx5): 5.8 µM
Activity (LoVo [9]): inactive
Activity (LoVo/DX [10]): inactive
fold change (FC) [11]: 2.2
fold change (FC) (LoVo [12]): 3
Activity (LoVo/DX [13]): inactive
Activity (LoVo [14]): inactive
Activity (LoVo [15]): 35%
Activity [16]: 35%
Activity (LoVo [17]): Active
Activity (LoVo/DX [18]): Active
Activity (LoVo [19]): inactive
Activity (LoVo [20]): Active
inhibition in vivo at 300 µmol/kg (4T1 [21]): -0.2%
inhibition in vivo at 300 µmol/kg (4T1 [22]): 40.4 to 41%
Activity (Mus musculus [23]): <= 10%
Activity (Mus musculus [24]): 1.32 g
Activity (Mus musculus [25]): 0.147 g
Activity (Mus musculus [26]): 0.535 g
Activity (Mus musculus [27]): 0.222 g
Activity (4T1 [28]): 49
Activity (Mus musculus [29]): 259.1 ×10³ /uL
Activity (Mus musculus [30]): 10 ×10⁶ /uL
Activity (Mus musculus [31]): 18.2 g/dL
Activity (Mus musculus [32]): 49.6%
Activity (Mus musculus [33]): 767 ×10³ /uL
Activity (Mus musculus [34]): 26.6 U/L
Activity (Mus musculus [35]): 163.3 U/L
Activity (Mus musculus [36]): 7.1 µmol/L
Activity (Mus musculus [37]): 4.7 mmol/L
Activity (LoVo [38]): Toxic
